Each compound was assayed against T1, recombinant human plasminogen activator inhibitor-1 (PAI-1) (Homo sapiens, UniProt P05121) (assay: Screening for PAI-1 inhibition (residual tPA activity, Spectrozyme-tPA chromogenic substrate)). Details: test compound at 100 Um; pH 6.6 buffer, 140 nM PAI-1, 70 nM tPA.
T1 construct: purchased Molecular Innovations, Royal Oak, Mich
Format: biochemical
Description: Screening for PAI-1 inhibition. Test compounds are dissolved in DMSO at a final concentration of 10 Mm, then diluted 100× in physiologic buffer. The inhibitory assay is initiated by the addition of the test compound (1-100 μM final concentration, maximum DMSO concentration of 0.2%) in a Ph 6.6 buffer containing 140 Nm recombinant human plasminogen activator inhibitor-1 (PAI-1; Molecular Innovations, Royal Oak, Mich.). Following a 1 hour incubation at room temperature, 70 Nm of recombinant human tissue plasminogen activator (Tpa) is added, and the combination of the test compound, PAI-1 and Tpa is incubated for an additional 30 minutes. Following the second incubation, Spectrozyme-Tpa (American Diagnostica, Greenwich, Conn.), a chromogenic substrate for Tpa, is added and absorbance read at 405 nm at 0 and 60 minutes. Relative PAI-1 inhibition is equal to the residual Tpa activity in the presence of the test compounds and PAI-1. Control treatments include the complete inhibition of Tpa by PAI-1 at the molar ratio employed (2:1), and the absence of any effect of the test compound on Tpa alone.

T1 sequence (P05121 24-402): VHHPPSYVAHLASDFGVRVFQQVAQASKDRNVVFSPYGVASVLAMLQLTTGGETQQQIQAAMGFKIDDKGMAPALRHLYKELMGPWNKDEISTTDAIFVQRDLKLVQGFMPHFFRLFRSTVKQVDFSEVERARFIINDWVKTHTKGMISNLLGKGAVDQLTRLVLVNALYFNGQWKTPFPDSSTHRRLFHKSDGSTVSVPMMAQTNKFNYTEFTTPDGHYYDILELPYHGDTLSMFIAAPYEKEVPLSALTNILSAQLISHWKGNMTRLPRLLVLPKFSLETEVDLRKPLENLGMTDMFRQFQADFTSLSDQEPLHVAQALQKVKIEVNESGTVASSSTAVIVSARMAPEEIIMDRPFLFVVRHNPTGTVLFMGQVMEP

inhibition at 100 µM	SMILES
92%	C#CCn1cc(/C=N/OCC(=O)O)c2cc(OCc3cccc(Br)c3)ccc21 [Compound 36, [({(1E)-[5-[(3-bromobenzyl)oxy]-1-(2-propynyl)-1H-indol-3-yl]methylidene}amino)oxy]acetic acid]
81%	Cn1cc(/C=N/OCC(=O)O)c2cc(OCc3cccc(C(F)(F)F)c3)ccc21 [Compound 43, ({[(1E)-(1-methyl-5-{[3-(trifluoromethyl)benzyl]oxy}-1H-indol-3-yl)methylidene]amino}oxy)acetic acid]
58%	C=CCn1cc(/C=N/OCC(=O)O)c2cc(OCc3cccc(Cl)c3)ccc21 [Compound 16, {[((1E)-{1-allyl-5-[(3-chlorobenzyl)oxy]-1H-indol-3-yl}methylidene)amino]oxy}acetic acid]
57%	CC(C)(C)c1ccc(COc2cccc(-c3ccc(/C=N/OCC(=O)O)cc3)c2)cc1 [Compound 89, {[((1E)-{3′-[(4-tert-butylbenzyl)oxy]-1,1′-biphenyl-4-yl}methylidene)amino]oxy}acetic acid]
86%	C=CCn1cc(/C=N/OCC(=O)O)c2cc(OCc3cc(C(F)(F)F)cc(C(F)(F)F)c3)ccc21 [Compound 10, ({[(1E)-(1-allyl-5-{[3,5-bis(trifluoromethyl)benzyl]oxy}-1H-indol-3-yl)methylidene]amino}oxy)acetic acid]
79%	C#CCn1cc(/C=N/OCC(=O)O)c2cc(OCc3ccccc3Cl)ccc21 [Compound 48, [({(1E)-[5-[(2-chlorobenzyl)oxy]-1-(2-propynyl)-1H-indol-3-yl]methylidene}amino)oxy]acetic acid]
96%	C#CCn1cc(/C=N/OCC(=O)O)c2cc(OCc3cccc(C(F)(F)F)c3)ccc21 [Compound 42, ({[(1E)-(1-(2-propynyl)-5-{[3-(trifluoromethyl)benzyl]oxy}-1H-indol-3-yl)methylidene]amino}oxy)acetic acid]
95%	O=C(O)CO/N=C/c1cc(OCc2ccc(F)cc2)cc(OCc2ccc(F)cc2)c1 [Compound 143, {[((1E)-{3,5-bis[(4-fluorobenzyl)oxy]phenyl}methylidene)amino]oxy}acetic acid]
71%	CCn1cc(/C=N/OCC(=O)O)c2cc(OCc3cc(C(F)(F)F)cc(C(F)(F)F)c3)ccc21 [Compound 11, ({[(1E)-(5-{[3,5-bis(trifluoromethyl)benzyl]oxy}-1-ethyl-1H-indol-3-yl)methylidene]amino}oxy)acetic acid]
71%	O=C(O)CO/N=C/c1cn(Cc2ccccc2)c2ccc(OCc3cccc(Br)c3)cc12 [Compound 15, {[((1E)-{1-benzyl-5-[(3-bromobenzyl)oxy]-1H-indol-3-yl}methylidene)amino]oxy}acetic acid]
6%	Cc1cccc(COc2ccc(-c3ccc(/C=N/OCC(=O)O)cc3)cc2)c1 [Compound 110, {[((1E)-{4′-[(3-methylbenzyl)oxy]-1,1′-biphenyl-4-yl}methylidene)amino]oxy}acetic acid]
58%	O=C(O)CO/N=C/c1ccc(-c2ccc(OCc3ccc(Cl)c(Cl)c3)cc2)cc1 [Compound 108, {[((1E)-{4′-[(3,4-dichlorobenzyl)oxy]-1,1′-biphenyl-4-yl}methylidene)amino]oxy}acetic acid]
85%	O=C(O)CO/N=C/c1ccc(-c2cccc(OCc3ccccc3)c2)cc1 [Compound 93, [({(1E)-[3′-(benzyloxy)-1,1′-biphenyl-4-yl]methylidene}amino)oxy]acetic acid]
72%	O=C(O)CO/N=C/c1ccc(OCc2ccc(F)c(F)c2)c(OCc2ccc(F)c(F)c2)c1 [Compound 121, {[((1E)-{3,4-bis[(3,4-difluorobenzyl)oxy]phenyl}methylidene)amino]oxy}acetic acid]
83%	Cc1ccc(COc2cccc(-c3cccc(/C=N/OCC(=O)O)c3)c2)cc1 [Compound 70, {[((1E)-{3′-[(4-methylbenzyl)oxy]-1,1′-biphenyl-3-yl}methylidene)amino]oxy}acetic acid]
48%	O=C(O)CO/N=C/c1cccc(OCc2ccc(F)c(F)c2)c1OCc1ccc(F)c(F)c1 [Compound 141, {[((1E)-{2,3-bis[(3,4-difluorobenzyl)oxy]phenyl}methylidene)amino]oxy}acetic acid]
93%	O=C(O)CO/N=C/c1cc(OCc2ccc(C(F)(F)F)cc2)cc(OCc2ccc(C(F)(F)F)cc2)c1 [Compound 144, ({[(1E)-(3,5-bis{[4-(trifluoromethyl)benzyl]oxy}phenyl)methylidene]amino}oxy)acetic acid]
84%	O=C(O)CO/N=C/c1cccc(-c2cccc(OCc3cccc(C(F)(F)F)c3)c2)c1 [Compound 65, ({[(1E)-(3′-{[3-(trifluoromethyl)benzyl]oxy}-1,1′-biphenyl-3-yl)methylidene]amino}oxy)acetic acid]
84%	O=C(O)CO/N=C/c1cn(Cc2ccccc2)c2ccc(OCc3cccc(Cl)c3)cc12 [Compound 18, {[((1E)-{1-benzyl-5-[(3-chlorobenzyl)oxy]-1H-indol-3-yl}methylidene)amino]oxy}acetic acid]
26%	CCn1cc(/C=N/OCC(=O)O)c2cc(OCc3cccc(C)c3)ccc21 [Compound 26, {[((1E)-{1-ethyl-5-[(3-methylbenzyl)oxy]-1H-indol-3-yl}methylidene)amino]oxy}acetic acid]
11%	O=C(O)CO/N=C/c1c[nH]c2ccc(OCc3ccccc3Cl)cc12 [Compound 30, {[((1E)-{5-[(2-chlorobenzyl)oxy]-1H-indol-3-yl}methylidene)amino]oxy}acetic acid]
62%	O=C(O)CO/N=C/c1cn(Cc2ccccc2)c2ccc(OCc3ccc4ccccc4c3)cc12 [Compound 56, [({(1E)-[1-benzyl-5-(2-naphthylmethoxy)-1H-indol-3-yl]methylidene}amino)oxy]acetic acid]
84%	O=C(O)CO/N=C/c1cccc(-c2cccc(OCc3ccc(C(F)(F)F)cc3)c2)c1 [Compound 58, ({[(1E)-(3′-{[4-(trifluoromethyl)benzyl]oxy}-1,1′-biphenyl-3-yl)methylidene]amino}oxy)acetic acid]
69%	Cc1cccc(COc2ccc(OCc3cccc(C)c3)c(/C=N/OCC(=O)O)c2)c1 [Compound 159, {[((1E)-{2,5-bis[(3-methylbenzyl)oxy]phenyl}methylidene)amino]oxy}acetic acid]
90%	Cc1cccc(COc2ccc(/C=N/OCC(=O)O)c(OCc3cccc(C)c3)c2)c1 [Compound 129, {[((1E)-{2,4-bis[(3-methylbenzyl)oxy]phenyl}methylidene)amino]oxy}acetic acid]
82%	O=C(O)CO/N=C/c1cn(Cc2ccccc2)c2ccc(OCc3ccccc3Cl)cc12 [Compound 29, {[((1E)-{1-benzyl-5-[(2-chlorobenzyl)oxy]-1H-indol-3-yl}methylidene)amino]oxy}acetic acid]
10%	O=C(O)CO/N=C/c1ccc(-c2cccc(OCc3c(Cl)cccc3Cl)c2)cc1 [Compound 101, {[((1E)-{3′-[(2,6-dichlorobenzyl)oxy]-1,1′-biphenyl-4-yl}methylidene)amino]oxy}acetic acid]

Source: patent US7411083B2, “Substituted acetic acid derivatives” (Wyeth, priority 2003, dated 2008)
